The text below walks through data of EP0255485A2, “Transdermal compositions” (priority 1986, dated 1988).

A short description of one data set: in vitro. The conditions noted are these: mouse.
For data set [1] the following is noted: for Flux^+: expressed in terms of procaterol hydrochloride, concentration could not be measured; for P Px*: Px = permeability coefficient of the drug from propylene glycol solution.
Data set [2] can be described thus: Extrapolated delivery through human skin, assuming 1/5 the permeability of mouse skin. Format: in vitro ADME. The method, then:
The permeation of the compounds from the mixture of propylene glycol triacetin was negligible. The concentration of each analgesic can be increased to 3% or 4% in the donor solution and corresponding increases in flux can be expected. […] A usual dose for oxymorphone and hydromorphone is about 6 to 10 mg per day in humans.
Assuming the permeability of human skin to be 1/5 that of mouse skin, a daily flux of 0.68 mg can be achieved in man. The maximum daily dose in man is approximated to be 0.2 mg.

Where [3] appears, read: LA:PG:TA 5:30:65, 0.5 wt % analgesic, Conc. 5.5 mg/ml.
The mark [4] stands for this setting: LA:PG:TA 10:30:60, 0.5 wt % analgesic, Conc. 5.4 mg/ml.
[5] abbreviates: LA:PG:TA 20:30:50, 0.5 wt % analgesic, Conc. 5.3 mg/ml.
The mark [6] stands for this setting: Vehicle LA:TA:PG 20:50:30, Conc'n. 21.57 mg/ml.

Where a name gives a salt, the structure may show the parent alone. Read-outs that look alike come from different tables or passages of the source.

Take `CCC(NC(C)C)C(O)c1ccc(O)c2[nH]c(=O)ccc12` (stereo not drawn) [Procaterol Hydrochloride]: the Papp (commonly the rate of passage across a membrane or cell layer, normalised by area and donor concentration) in “in vitro” (P, Solvent System LA:PG:TA 20:30:50, approximate concentration 5 mg/ml) is 0.77 ×10⁻⁶ cm/s. For the same compound, in data set [1] (Solvent System LA:PG:TA 20:30:50, approximate concentration 5 mg/ml), the “Lag Time” value is 4.0 h. In addition, the Flux is recorded as 14 ug/cm^2/h in data set [1] (Solvent System LA:PG:TA 20:30:50, approximate concentration 5 mg/ml, Hydrochloride) and “about 14 ug/cm^2/h” in data set [1] (Solvent System LA:PG:TA 20:30:50, approximate concentration 5 mg/ml, listed as procaterol hydrochloride, Hydrochloride). Also, the flux value in data set [1] (formulation containing LA:PG:TA (20:30:50)) stood at 3.36 mg/day/10 cm². Moreover, in data set [2], the “daily flux in man” value is 0.68 mg.
In the case of `CN1CC[C@]23c4c5ccc(O)c4O[C@H]2C(=O)CC[C@@]3(O)[C@H]1C5` [OX, Oxymorphone], the Papp in the data set “in vitro” (PX10^6, LA:PG:TA 5:30:65, 0.5 wt % analgesic, Conc. 5.5 mg/ml) worked out at 2 ×10⁻⁶ cm/s; in “in vitro” (PX10^6, LA:PG:TA 10:30:60, 0.5 wt % analgesic, Conc. 5.4 mg/ml), 2.7 ×10⁻⁶ cm/s; in the data set “in vitro” (PX10^6, LA:PG:TA 20:30:50, 0.5 wt % analgesic, Conc. 5.3 mg/ml), 3.5 ×10⁻⁶ cm/s. Further, the results for the Flux in data set [1] (setting [3]), in data set [1] (setting [4]) and in data set [1] (setting [5]) were 40.0 ug/cm^2/hr, 51.5 ug/cm^2/hr and 66.6 ug/cm^2/hr, respectively. The “Lag Time” value is 7.6 h in data set [1] (setting [3]), 4.1 h in data set [1] (setting [4]) and 3.5 h in data set [1] (setting [5]). In addition, the “delivery from a 10 cm² patch through hairless mouse skin” value in data set [1] (loading concentration of 0.5%, equivalent of flux 66.6 ug/cm²/hr) is “about 16 mg/day”. Moreover, in data set [2] (loading concentration increased to 2%, four-fold increase in flux expected), the “delivered from a 10 cm² patch in humans” value is recorded as “about 12.8 mg/day”. In addition, in data set [2] (loading concentration of 0.5%, assuming 1/5 the permeability), the “delivery from a 10 cm² patch through human skin” value was “about 3.2 mg/day”.
Take `CCC(NC(C)C)C(O)c1ccc(O)c2[nH]c(=O)ccc12` (stereo not drawn) [Procaterol]: the apparent permeability coefficient (Papp) was 3.12 ×10⁻⁶ cm/s in “in vitro” (P, Vehicle Ethyl Linoleate:PG:TA 10:5:85, Drug Conc. 0.855 mg/ml); 0.82 ×10⁻⁶ cm/s in the data set “in vitro” (P, Vehicle Ethyl Linoleate:TG 10:90, Drug Conc. 12.29 mg/ml); 1.1 ×10⁻⁶ cm/s in the data set “in vitro” (P, Vehicle LA:TA:PG 20:50:30, Procaterol Conc. 40 mg/ml); 0.404 ×10⁻⁶ cm/s in the data set “in vitro” (P, Vehicle LA:TEC:PG 10:70:20, Drug Conc. 23.03 mg/ml); 0.526 ×10⁻⁶ cm/s in the data set “in vitro” (P, Vehicle LA:TEC:PG 10:80:10, Drug Conc. 16.9 mg/ml); 0.547 ×10⁻⁶ cm/s in “in vitro” (P, Vehicle LA:TEC:PG 20:50:30, Drug Conc. 4.32 mg/ml). In addition, the apparent permeability coefficient (Papp) was 0.41 ×10⁻⁶ cm/s in “in vitro” (P, Vehicle LA:TEC:PG 20:50:30, Drug Conc. 44.7 mg/ml); 0.66 ×10⁻⁶ cm/s in “in vitro” (P, Vehicle LA:TEC:PG 20:60:20, Drug Conc. 19.35 mg/ml); 2.6 ×10⁻⁶ cm/s in the data set “in vitro” (P, Vehicle LNA:PG:TA 20:15:65, Drug Conc. 8.15 mg/ml); 3 ×10⁻⁶ cm/s in “in vitro” (P, Vehicle Oleic Acid:PG:TA 20:30:50, Drug Conc. 15.89 mg/ml). Besides, the Lag Time in data set [1] (Ratio of LA:TA:PG 5:85:10) is recorded as 5.5 h; in data set [1] (Ratio of LA:TA:PG 10:80:10), 4.8 h; in data set [1] (Ratio of LA:TA:PG 15:75:10), 4.05 h; in data set [1] (Ratio of LA:TA:PG 20:50:30) it was 4.4 h; in data set [1] (Ratio of LA:TA:PG 20:75:5), 4.8 h; in data set [1] (Vehicle Ethyl Linoleate:PG:TA 10:5:85, Drug Conc. 0.855 mg/ml), 6 h. In addition, the “Lag Time” value in data set [1] (Vehicle Ethyl Linoleate:TG 10:90, Drug Conc. 12.29 mg/ml) was 8 h; in data set [1] (Vehicle LA:TA:PG 20:50:30, Procaterol Conc. 40 mg/ml), 1.26 h; in data set [1] (Vehicle LA:TEC:PG 10:70:20, Drug Conc. 23.03 mg/ml) it was 14.7 h; in data set [1] (Vehicle LA:TEC:PG 10:80:10, Drug Conc. 16.9 mg/ml), 14.7 h; in data set [1] (Vehicle LA:TEC:PG 20:50:30, Drug Conc. 4.32 mg/ml), 11.2 h; in data set [1] (Vehicle LA:TEC:PG 20:50:30, Drug Conc. 44.7 mg/ml), 7.3 h. Moreover, the “Lag Time” value turned out to be 4.9 h in data set [1] (Vehicle LA:TEC:PG 20:60:20, Drug Conc. 19.35 mg/ml); 2 h in data set [1] (Vehicle LNA:PG:TA 20:15:65, Drug Conc. 8.15 mg/ml); 1.8 h in data set [1] (Vehicle Oleic Acid:PG:TA 20:30:50, Drug Conc. 15.89 mg/ml). Further, the “Flux^+” value in data set [1] (Ratio of LA:TA:PG 5:85:10) amounted to 23.1 ug/cm^2/h; in data set [1] (Ratio of LA:TA:PG 10:80:10), 44.2 ug/cm^2/h; in data set [1] (Ratio of LA:TA:PG 15:75:10), 53.2 ug/cm^2/h; in data set [1] (Ratio of LA:TA:PG 20:50:30), 56.3 ug/cm^2/h; in data set [1] (Ratio of LA:TA:PG 20:75:5), 33.9 ug/cm^2/h. Moreover, the Flux in data set [1] (Vehicle Ethyl Linoleate:PG:TA 10:5:85, Drug Conc. 0.855 mg/ml, expressed as procaterol hydrochloride) worked out at 9.60 ug/cm^2/h; in data set [1] (Vehicle Ethyl Linoleate:TG 10:90, Drug Conc. 12.29 mg/ml, expressed as procaterol hydrochloride), 36.27 ug/cm^2/h; in data set [1] (Vehicle LA:TA:PG 20:50:30, Procaterol Conc. 40 mg/ml, expressed as hydrochloride salt), 158.6 ug/cm^2/h; in data set [1] (Vehicle LNA:PG:TA 20:15:65 (LNA = Linolenic Acid), Drug Conc. 8.15 mg/ml, expressed as procaterol hydrochloride), 76.27 ug/cm^2/h; in data set [1] (Vehicle Oleic Acid:PG:TA 20:30:50, Drug Conc. 15.89 mg/ml, expressed as procaterol hydrochloride), 171.76 ug/cm^2/h. Further, the “Flux*” value is listed as 33.5 ug/cm^2/h in data set [1] (Vehicle LA:TEC:PG 10:70:20, Drug Conc. 23.03 mg/ml, expressed as hydrochloride salt); 32.0 ug/cm^2/h in data set [1] (Vehicle LA:TEC:PG 10:80:10, Drug Conc. 16.9 mg/ml, expressed as hydrochloride salt); 8.5 ug/cm^2/h in data set [1] (Vehicle LA:TEC:PG 20:50:30, Drug Conc. 4.32 mg/ml, expressed as hydrochloride salt); 65.8 ug/cm^2/h in data set [1] (Vehicle LA:TEC:PG 20:50:30, Drug Conc. 44.7 mg/ml, expressed as hydrochloride salt); 46.0 ug/cm^2/h in data set [1] (Vehicle LA:TEC:PG 20:60:20, Drug Conc. 19.35 mg/ml, expressed as hydrochloride salt).
Take `CC1CC(=O)NN=C1c1ccc(-n2ccnc2)cc1` (stereo not drawn) [Compound I Base]: the Papp in “in vitro” (Permeability Coefficient (P), 0 % Linoleic Acid in propylene glycol, Conc'n. 26.38 mg/ml) stood at 0.0042 ×10⁻⁶ cm/s; in “in vitro” (Permeability Coefficient (P), 10 % Linoleic Acid in propylene glycol, Conc'n. 43 mg/ml), 3.18 ×10⁻⁶ cm/s; in the data set “in vitro” (Permeability Coefficient (P), 40 % Linoleic Acid in propylene glycol, Conc'n. 43 mg/ml), 2.18 ×10⁻⁶ cm/s; in “in vitro” (Permeability Coefficient (P), 80 % Linoleic Acid in propylene glycol, Conc'n. 43 mg/ml) it was 0.96 ×10⁻⁶ cm/s; in the data set “in vitro” (Permeability Coefficient (P), 100 % Linoleic Acid, Conc'n. 31.5 mg/ml), 0.22 ×10⁻⁶ cm/s; in “in vitro” (Permeability Coefficient (P), Vehicle LA:TA:PG 20:50:30, Conc'n. 21.57 mg/ml), 1.68 ×10⁻⁶ cm/s. For the same compound, the Papp was determined as 2.58 ×10⁻⁶ cm/s in the data set “in vitro” (Permeability Coefficient (P), Vehicle LA:TG 20:80, Conc'n. 20.09 mg/ml) and 7.6 ×10⁻⁶ cm/s in “in vitro” (permeability coefficient). For the same compound, the “Lag Time” value in data set [1] (0 % Linoleic Acid in propylene glycol, Conc'n. 26.38 mg/ml) is given as 6.2 h; in data set [1] (10 % Linoleic Acid in propylene glycol, Conc'n. 43 mg/ml) it was 1.75 h; in data set [1] (40 % Linoleic Acid in propylene glycol, Conc'n. 43 mg/ml), 1.45 h; in data set [1] (80 % Linoleic Acid in propylene glycol, Conc'n. 43 mg/ml), 1.29 h; in data set [1] (100 % Linoleic Acid, Conc'n. 31.5 mg/ml) it was 5.35 h; in data set [1] (setting [6]) it was 1.91 h. Moreover, the “Lag Time” value in data set [1] (Vehicle LA:TG 20:80, Conc'n. 20.09 mg/ml) is reported as 5.58 h. Moreover, the Flux in data set [1] (0 % Linoleic Acid in propylene glycol, Conc'n. 26.38 mg/ml, expressed as hydrochloride salt) came to 0.4 ug/cm^2/h; in data set [1] (10 % Linoleic Acid in propylene glycol, Conc'n. 43 mg/ml, expressed as hydrochloride salt) it was 492 ug/cm^2/h; in data set [1] (40 % Linoleic Acid in propylene glycol, Conc'n. 43 mg/ml, expressed as hydrochloride salt), 337.3 ug/cm^2/h; in data set [1] (80 % Linoleic Acid in propylene glycol, Conc'n. 43 mg/ml, expressed as hydrochloride salt) it was 148.5 ug/cm^2/h; in data set [1] (100 % Linoleic Acid, Conc'n. 31.5 mg/ml, expressed as hydrochloride salt), 24.5 ug/cm^2/h; in data set [1] (setting [6]), 130.14 ug/cm^2/h. The Flux in data set [1] (Vehicle LA:TG 20:80 (TG = tetraglycol), Conc'n. 20.09 mg/ml) turned out to be 186.69 ug/cm^2/h. Moreover, the “P Px*” value turned out to be 1 in data set [1] (0 % Linoleic Acid in propylene glycol); 755 in data set [1] (10 % Linoleic Acid in propylene glycol); 517 in data set [1] (40 % Linoleic Acid in propylene glycol); 227 in data set [1] (80 % Linoleic Acid in propylene glycol); 51 in data set [1] (100 % Linoleic Acid); 400 in data set [1] (Vehicle LA:TA:PG 20:50:30). The “P Px*” value in data set [1] (Vehicle LA:TG 20:80) is on record as 614.
